Measurements as given in article PMC5869712 (Scientific Reports, 2018).
Like-named read-outs stand apart in the source and are kept apart here.

Key:
KDR = target: T1, KDR (Homo sapiens, UniProt P35968); test: Eurofins Kinase Profiler panel; type: biochemical; conditions: read-out: % inhibition (1μM), DMSO control=100%, lower=stronger
T1 construct: purchased Eurofins KinaseProfiler (Eurofins Pharma Discovery Services UK, Dundee); JAK3 also ChemPartner

Lyn = target: T2, Lyn (Homo sapiens, UniProt P07948); test: Eurofins Kinase Profiler panel; type: biochemical; conditions: read-out: % inhibition (1μM), DMSO control=100%, lower=stronger
T2 construct: purchased Eurofins KinaseProfiler (Eurofins Pharma Discovery Services UK, Dundee); JAK3 also ChemPartner

MAPKAP-K2 = target: T3, MAPKAP-K2 (Homo sapiens, UniProt P49137); test: Eurofins Kinase Profiler panel; type: biochemical; conditions: read-out: % inhibition (1μM), DMSO control=100%, lower=stronger
T3 construct: purchased Eurofins KinaseProfiler (Eurofins Pharma Discovery Services UK, Dundee); JAK3 also ChemPartner

JAK2 = target: T4, JAK2 (Homo sapiens, UniProt O60674); test: Enzymatic Caliper Mobility Shift Assay, ATP at Km; type: biochemical
T4 construct: ChemPartner (contract assay service)
T4 sequence (O60674 whole entry): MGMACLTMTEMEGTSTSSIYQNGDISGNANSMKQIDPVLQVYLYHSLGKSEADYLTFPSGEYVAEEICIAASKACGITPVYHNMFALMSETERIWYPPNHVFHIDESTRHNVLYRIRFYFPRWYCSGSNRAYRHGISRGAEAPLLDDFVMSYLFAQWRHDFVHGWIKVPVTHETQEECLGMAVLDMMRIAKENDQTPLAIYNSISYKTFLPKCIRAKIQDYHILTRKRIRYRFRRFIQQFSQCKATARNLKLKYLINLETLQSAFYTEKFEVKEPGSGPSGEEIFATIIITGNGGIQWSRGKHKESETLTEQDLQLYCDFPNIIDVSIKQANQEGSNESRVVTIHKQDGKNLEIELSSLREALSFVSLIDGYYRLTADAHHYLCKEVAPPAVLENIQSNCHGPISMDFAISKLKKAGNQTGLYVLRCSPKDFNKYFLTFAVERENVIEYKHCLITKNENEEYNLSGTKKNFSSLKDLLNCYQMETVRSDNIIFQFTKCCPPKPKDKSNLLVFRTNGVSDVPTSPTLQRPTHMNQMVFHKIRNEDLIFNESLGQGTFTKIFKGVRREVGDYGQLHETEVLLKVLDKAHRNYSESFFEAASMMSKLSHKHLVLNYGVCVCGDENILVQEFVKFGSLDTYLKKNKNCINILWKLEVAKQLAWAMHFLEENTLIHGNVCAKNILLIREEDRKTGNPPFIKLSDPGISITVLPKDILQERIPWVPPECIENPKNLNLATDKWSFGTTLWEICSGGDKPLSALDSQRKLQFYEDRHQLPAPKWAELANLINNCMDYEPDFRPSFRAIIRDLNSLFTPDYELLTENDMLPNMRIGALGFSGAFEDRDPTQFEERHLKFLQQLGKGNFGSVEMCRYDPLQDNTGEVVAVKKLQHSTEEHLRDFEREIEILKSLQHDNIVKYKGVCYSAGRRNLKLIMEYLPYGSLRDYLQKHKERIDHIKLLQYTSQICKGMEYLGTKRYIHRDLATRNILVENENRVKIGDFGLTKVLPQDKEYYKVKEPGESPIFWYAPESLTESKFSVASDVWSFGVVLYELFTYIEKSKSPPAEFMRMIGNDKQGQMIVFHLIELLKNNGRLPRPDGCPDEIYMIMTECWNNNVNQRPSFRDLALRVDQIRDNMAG
Text: (§1) The assay protocol guides are commercially available from ChemPartner.

TYK2 = TYK2 (Homo sapiens, UniProt P29597); test: Enzymatic Caliper Mobility Shift Assay, ATP at Km; type: biochemical
Sequence of TYK2 (P29597 whole entry): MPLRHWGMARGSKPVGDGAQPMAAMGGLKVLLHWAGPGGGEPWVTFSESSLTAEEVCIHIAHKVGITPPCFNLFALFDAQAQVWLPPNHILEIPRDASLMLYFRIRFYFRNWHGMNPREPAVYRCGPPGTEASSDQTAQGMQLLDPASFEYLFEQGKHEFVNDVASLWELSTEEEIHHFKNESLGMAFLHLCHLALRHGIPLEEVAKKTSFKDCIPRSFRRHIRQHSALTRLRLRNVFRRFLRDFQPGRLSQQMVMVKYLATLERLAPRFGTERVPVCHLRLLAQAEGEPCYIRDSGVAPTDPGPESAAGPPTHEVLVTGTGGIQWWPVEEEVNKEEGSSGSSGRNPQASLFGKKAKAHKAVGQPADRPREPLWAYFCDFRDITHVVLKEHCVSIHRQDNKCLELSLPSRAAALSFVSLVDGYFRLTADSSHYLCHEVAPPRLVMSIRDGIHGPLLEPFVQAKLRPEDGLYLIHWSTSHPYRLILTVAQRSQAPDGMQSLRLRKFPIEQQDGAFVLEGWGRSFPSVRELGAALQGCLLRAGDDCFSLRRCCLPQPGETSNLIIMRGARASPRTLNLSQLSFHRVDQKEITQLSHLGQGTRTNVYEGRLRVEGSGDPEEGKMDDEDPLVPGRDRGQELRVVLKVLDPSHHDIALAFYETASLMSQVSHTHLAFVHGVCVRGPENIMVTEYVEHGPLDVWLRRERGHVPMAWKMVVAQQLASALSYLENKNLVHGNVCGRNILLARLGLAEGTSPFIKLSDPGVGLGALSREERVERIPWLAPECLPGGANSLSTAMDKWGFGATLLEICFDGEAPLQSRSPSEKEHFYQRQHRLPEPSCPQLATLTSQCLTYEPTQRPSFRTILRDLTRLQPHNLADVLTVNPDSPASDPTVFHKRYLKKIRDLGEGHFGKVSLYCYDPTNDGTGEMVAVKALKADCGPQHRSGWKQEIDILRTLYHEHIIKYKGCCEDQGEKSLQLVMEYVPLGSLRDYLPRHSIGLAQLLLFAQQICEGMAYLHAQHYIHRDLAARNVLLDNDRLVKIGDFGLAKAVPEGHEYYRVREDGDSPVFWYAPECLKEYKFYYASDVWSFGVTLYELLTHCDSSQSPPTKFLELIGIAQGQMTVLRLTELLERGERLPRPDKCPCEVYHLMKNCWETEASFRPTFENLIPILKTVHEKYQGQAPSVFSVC
Text: as §1

JAK1 = target: T5, JAK1 (Homo sapiens, UniProt P23458); test: Enzymatic Caliper Mobility Shift Assay, ATP at Km; type: biochemical
T5 construct: ChemPartner (contract assay service)
T5 sequence (P23458 whole entry): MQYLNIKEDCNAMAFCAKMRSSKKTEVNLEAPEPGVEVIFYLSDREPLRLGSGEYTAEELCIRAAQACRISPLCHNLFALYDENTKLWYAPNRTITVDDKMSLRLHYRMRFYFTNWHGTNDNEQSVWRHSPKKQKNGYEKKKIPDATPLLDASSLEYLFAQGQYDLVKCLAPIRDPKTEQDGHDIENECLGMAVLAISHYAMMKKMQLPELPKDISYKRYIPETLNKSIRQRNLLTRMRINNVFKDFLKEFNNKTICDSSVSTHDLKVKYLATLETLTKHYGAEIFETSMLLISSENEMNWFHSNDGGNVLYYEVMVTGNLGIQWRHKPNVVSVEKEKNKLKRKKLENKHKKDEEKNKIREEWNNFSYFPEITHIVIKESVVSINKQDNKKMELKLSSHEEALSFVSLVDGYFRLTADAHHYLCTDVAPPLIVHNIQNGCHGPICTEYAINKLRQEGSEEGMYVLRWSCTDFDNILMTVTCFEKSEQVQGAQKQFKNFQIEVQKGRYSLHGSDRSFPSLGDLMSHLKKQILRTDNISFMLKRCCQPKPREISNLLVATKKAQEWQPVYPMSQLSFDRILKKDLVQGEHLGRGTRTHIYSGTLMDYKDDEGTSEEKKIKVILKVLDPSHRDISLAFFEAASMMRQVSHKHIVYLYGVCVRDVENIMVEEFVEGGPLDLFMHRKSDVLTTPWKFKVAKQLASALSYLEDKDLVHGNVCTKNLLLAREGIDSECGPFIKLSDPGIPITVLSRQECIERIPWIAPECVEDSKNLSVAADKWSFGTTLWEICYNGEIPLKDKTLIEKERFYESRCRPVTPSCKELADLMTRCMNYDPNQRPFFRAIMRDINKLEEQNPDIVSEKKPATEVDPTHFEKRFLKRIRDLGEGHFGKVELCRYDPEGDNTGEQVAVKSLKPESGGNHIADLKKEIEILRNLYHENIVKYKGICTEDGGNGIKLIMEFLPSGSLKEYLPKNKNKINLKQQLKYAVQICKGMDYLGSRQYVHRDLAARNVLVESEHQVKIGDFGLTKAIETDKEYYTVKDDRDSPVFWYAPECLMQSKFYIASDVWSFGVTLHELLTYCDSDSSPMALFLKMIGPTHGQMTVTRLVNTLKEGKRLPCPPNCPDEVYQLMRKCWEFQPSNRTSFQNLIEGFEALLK
Text: as §1

ERBB2 = target: T6, ERBB2 (Homo sapiens, UniProt P04626); test: Cys-containing kinase family panel (EurofinsCerep); type: biochemical
T6 construct: EurofinsCerep (contract assay service)

BMX = target: T7, BMX (Homo sapiens, UniProt P51813); test: Cys-containing kinase family panel (EurofinsCerep); type: biochemical
T7 construct: EurofinsCerep (contract assay service)

GSK3β = target: T8, GSK3β (Homo sapiens, UniProt P49841); test: Eurofins Kinase Profiler panel; type: biochemical; conditions: read-out: % inhibition (1μM), DMSO control=100%, lower=stronger
T8 construct: purchased Eurofins KinaseProfiler (Eurofins Pharma Discovery Services UK, Dundee); JAK3 also ChemPartner

MKK4 = target: T9, MKK4 (Mus musculus, UniProt P47809); test: Eurofins Kinase Profiler panel; type: biochemical; conditions: read-out: % inhibition (1μM), DMSO control=100%, lower=stronger
T9 construct: purchased Eurofins KinaseProfiler (Eurofins Pharma Discovery Services UK, Dundee); JAK3 also ChemPartner

ALK4 = target: T10, ALK4 (Homo sapiens, UniProt P36896); test: Eurofins Kinase Profiler panel; type: biochemical; conditions: read-out: % inhibition (1μM), DMSO control=100%, lower=stronger
T10 construct: purchased Eurofins KinaseProfiler (Eurofins Pharma Discovery Services UK, Dundee); JAK3 also ChemPartner

[1] = system: IL-4-induced JAK/STAT6 phosphorylation in THP-1 cells (JAK1/JAK3); test: STAT6 phosphorylation induced by IL-4 in THP-1 cells, Western blot; conditions: for IC50: Homo sapiens
ACK1 = target: T11, ACK1 (Homo sapiens, UniProt Q07912); test: Eurofins Kinase Profiler panel; type: biochemical; conditions: read-out: % inhibition (1μM), DMSO control=100%, lower=stronger
T11 construct: purchased Eurofins KinaseProfiler (Eurofins Pharma Discovery Services UK, Dundee); JAK3 also ChemPartner

GCK = target: T12, GCK (Homo sapiens, UniProt Q12851); test: Eurofins Kinase Profiler panel; type: biochemical; conditions: read-out: % inhibition (1μM), DMSO control=100%, lower=stronger
T12 construct: purchased Eurofins Pharma Discovery Services UK Limited (Kinase Profiler screening platform)

[2] = system: IL-6-induced STAT3 phosphorylation (JAK1); test: IL-6-induced pSTAT3 in total lymphocytes in hPBMCs, flow cytometry; type: cell-based, human
TrkA = target: T13, TrkA (Homo sapiens, UniProt P04629); test: Eurofins Kinase Profiler panel; type: biochemical; conditions: read-out: % inhibition (1μM), DMSO control=100%, lower=stronger
T13 construct: purchased Eurofins Pharma Discovery Services UK Limited (Kinase Profiler screening platform)
Text: as §1

SGK = target: T14, SGK (Homo sapiens, UniProt O00141); test: Eurofins Kinase Profiler panel; type: biochemical; conditions: read-out: % inhibition (1μM), DMSO control=100%, lower=stronger
T14 construct: purchased Eurofins KinaseProfiler (Eurofins Pharma Discovery Services UK, Dundee); JAK3 also ChemPartner
Text: as §1

TAO1 = target: T15, TAO1 (Homo sapiens, UniProt Q7L7X3); test: Eurofins Kinase Profiler panel; type: biochemical; conditions: read-out: % inhibition (1μM), DMSO control=100%, lower=stronger
T15 construct: Eurofins Pharma Discovery Services UK Limited (Kinase Profiler service)
Text: as §1

PKCθ = target: T16, PKCθ (Homo sapiens, UniProt Q04759); test: Eurofins Kinase Profiler panel; type: biochemical; conditions: read-out: % inhibition (1μM), DMSO control=100%, lower=stronger
T16 construct: purchased Eurofins KinaseProfiler (Eurofins Pharma Discovery Services UK, Dundee); JAK3 also ChemPartner
Text: as §1

ZIPK = target: T17, ZIPK (Homo sapiens, UniProt O43293); test: Eurofins Kinase Profiler panel; type: biochemical; conditions: read-out: % inhibition (1μM), DMSO control=100%, lower=stronger
T17 construct: purchased Eurofins Pharma Discovery Services UK Limited (Kinase Profiler screening platform)
Text: as §1

GSK3α = target: T18, GSK3α (Homo sapiens, UniProt P49840); test: Eurofins Kinase Profiler panel; type: biochemical; conditions: read-out: % inhibition (1μM), DMSO control=100%, lower=stronger
T18 construct: purchased Eurofins KinaseProfiler (Eurofins Pharma Discovery Services UK, Dundee); JAK3 also ChemPartner
Text: as §1

CaMKI = target: T19, CaMKI (Homo sapiens, UniProt Q14012); test: Eurofins Kinase Profiler panel; type: biochemical; conditions: read-out: % inhibition (1μM), DMSO control=100%, lower=stronger
T19 construct: purchased Eurofins KinaseProfiler (Eurofins Pharma Discovery Services UK, Dundee); JAK3 also ChemPartner
Text: as §1

Rsk2 = target: T20, Rsk2 (Homo sapiens, UniProt P51812); test: Eurofins Kinase Profiler panel; type: biochemical; conditions: read-out: % inhibition (1μM), DMSO control=100%, lower=stronger
T20 construct: purchased Eurofins KinaseProfiler (Eurofins Pharma Discovery Services UK, Dundee); JAK3 also ChemPartner
T20 sequence (P51812 whole entry): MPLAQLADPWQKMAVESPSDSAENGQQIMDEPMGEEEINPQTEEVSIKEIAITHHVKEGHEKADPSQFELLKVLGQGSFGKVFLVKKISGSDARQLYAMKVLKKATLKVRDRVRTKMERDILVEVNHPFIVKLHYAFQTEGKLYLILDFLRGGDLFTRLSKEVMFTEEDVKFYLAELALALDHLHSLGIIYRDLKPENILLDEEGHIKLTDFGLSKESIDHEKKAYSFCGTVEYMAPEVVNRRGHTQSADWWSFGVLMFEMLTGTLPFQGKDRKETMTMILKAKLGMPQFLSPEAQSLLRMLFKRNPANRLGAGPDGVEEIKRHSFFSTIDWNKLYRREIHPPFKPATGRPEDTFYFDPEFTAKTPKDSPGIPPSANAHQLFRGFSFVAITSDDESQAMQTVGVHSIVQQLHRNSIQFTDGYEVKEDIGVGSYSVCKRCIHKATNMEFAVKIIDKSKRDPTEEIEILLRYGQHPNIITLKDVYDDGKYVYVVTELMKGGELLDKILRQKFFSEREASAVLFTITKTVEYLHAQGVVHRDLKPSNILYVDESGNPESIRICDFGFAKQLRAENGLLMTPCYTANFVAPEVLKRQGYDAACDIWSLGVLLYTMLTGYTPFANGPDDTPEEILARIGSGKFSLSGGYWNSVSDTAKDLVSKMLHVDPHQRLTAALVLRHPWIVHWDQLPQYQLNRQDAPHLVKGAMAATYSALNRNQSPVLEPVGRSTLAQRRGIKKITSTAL
Text: as §1

CaMKK2 = target: T21, CaMKK2 (Homo sapiens, UniProt Q96RR4); test: Eurofins Kinase Profiler panel; type: biochemical; conditions: read-out: % inhibition (1μM), DMSO control=100%, lower=stronger
T21 construct: purchased Eurofins KinaseProfiler (Eurofins Pharma Discovery Services UK, Dundee); JAK3 also ChemPartner
Text: as §1

CDK6 = target: T22, CDK6 (Homo sapiens, UniProt Q00534); test: Eurofins Kinase Profiler panel; type: biochemical; conditions: read-out: % inhibition (1μM), DMSO control=100%, lower=stronger
T22 construct: purchased Eurofins KinaseProfiler (Eurofins Pharma Discovery Services UK, Dundee); JAK3 also ChemPartner
Text: as §1

SAPK4 = target: T23, SAPK4 (Homo sapiens, UniProt O15264); test: Eurofins Kinase Profiler panel; type: biochemical; conditions: read-out: % inhibition (1μM), DMSO control=100%, lower=stronger
T23 construct: purchased Eurofins KinaseProfiler (Eurofins Pharma Discovery Services UK, Dundee); JAK3 also ChemPartner
Text: as §1

TrkC = target: T24, TrkC (Homo sapiens, UniProt Q16288); test: Eurofins Kinase Profiler panel; type: biochemical; conditions: read-out: % inhibition (1μM), DMSO control=100%, lower=stronger
T24 construct: purchased Eurofins Pharma Discovery Services UK Limited (Kinase Profiler screening platform)
Text: as §1

Pim-2 = target: T25, Pim-2 (Homo sapiens, UniProt Q9P1W9); test: Eurofins Kinase Profiler panel; type: biochemical; conditions: read-out: % inhibition (1μM), DMSO control=100%, lower=stronger
T25 construct: purchased Eurofins KinaseProfiler (Eurofins Pharma Discovery Services UK, Dundee); JAK3 also ChemPartner
Text: as §1

ROCK-I = target: T26, ROCK-I (Homo sapiens, UniProt Q13464); test: Eurofins Kinase Profiler panel; type: biochemical; conditions: read-out: % inhibition (1μM), DMSO control=100%, lower=stronger
T26 construct: purchased Eurofins KinaseProfiler (Eurofins Pharma Discovery Services UK, Dundee); JAK3 also ChemPartner
Text: as §1

TBK1 = target: T27, TBK1 (Homo sapiens, UniProt Q9UHD2); test: Eurofins Kinase Profiler panel; type: biochemical; conditions: read-out: % inhibition (1μM), DMSO control=100%, lower=stronger
T27 construct: purchased Eurofins Pharma Discovery Services UK Limited (Kinase Profiler screening platform)
Text: as §1

PKG1α = target: T28, PKG1α (Homo sapiens, UniProt Q13976); test: Eurofins Kinase Profiler panel; type: biochemical
T28 construct: Eurofins Pharma Discovery Services UK Limited (Kinase Profiler service)
T28 sequence (Q13976 whole entry): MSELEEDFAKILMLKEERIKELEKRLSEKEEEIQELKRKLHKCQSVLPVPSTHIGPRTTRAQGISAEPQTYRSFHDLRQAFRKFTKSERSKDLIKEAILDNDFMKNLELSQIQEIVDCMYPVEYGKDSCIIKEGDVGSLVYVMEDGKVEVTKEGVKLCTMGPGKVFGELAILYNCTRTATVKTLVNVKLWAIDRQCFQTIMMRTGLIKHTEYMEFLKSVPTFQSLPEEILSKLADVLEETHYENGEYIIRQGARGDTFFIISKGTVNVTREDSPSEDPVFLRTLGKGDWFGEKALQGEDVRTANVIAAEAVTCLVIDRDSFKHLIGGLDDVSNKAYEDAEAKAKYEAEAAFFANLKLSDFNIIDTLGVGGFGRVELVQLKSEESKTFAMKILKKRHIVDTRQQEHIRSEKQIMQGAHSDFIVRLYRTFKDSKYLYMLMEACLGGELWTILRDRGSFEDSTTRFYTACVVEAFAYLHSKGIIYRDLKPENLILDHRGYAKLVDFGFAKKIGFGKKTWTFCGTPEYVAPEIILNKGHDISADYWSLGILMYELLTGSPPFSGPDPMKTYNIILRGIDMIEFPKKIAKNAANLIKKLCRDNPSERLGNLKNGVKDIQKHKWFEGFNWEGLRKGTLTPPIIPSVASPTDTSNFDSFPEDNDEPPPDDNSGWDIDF
Text: as §1

Wee1 = target: T29, Wee1 (Homo sapiens, UniProt P30291); test: Eurofins Kinase Profiler panel; type: biochemical; conditions: read-out: % inhibition (1μM), DMSO control=100%, lower=stronger
T29 construct: purchased Eurofins Pharma Discovery Services UK Limited (Kinase Profiler screening platform)
Text: as §1

PAK4 = target: T30, PAK4 (Homo sapiens, UniProt O96013); test: Eurofins Kinase Profiler panel; type: biochemical; conditions: read-out: % inhibition (1μM), DMSO control=100%, lower=stronger
T30 construct: purchased Eurofins Pharma Discovery Services UK Limited (Kinase Profiler screening platform)
Text: as §1

Plk3 = target: T31, Plk3 (Homo sapiens, UniProt Q9H4B4); test: Eurofins Kinase Profiler panel; type: biochemical; conditions: read-out: % inhibition (1μM), DMSO control=100%, lower=stronger
T31 construct: purchased Eurofins KinaseProfiler (Eurofins Pharma Discovery Services UK, Dundee); JAK3 also ChemPartner
Text: as §1

Src = target: T32, Src (Homo sapiens, UniProt P12931); test: Eurofins Kinase Profiler panel; type: biochemical; conditions: read-out: % inhibition (1μM), DMSO control=100%, lower=stronger
T32 construct: purchased Eurofins KinaseProfiler (Eurofins Pharma Discovery Services UK, Dundee); JAK3 also ChemPartner
Text: as §1

STK33 = target: T33, STK33 (Homo sapiens, UniProt Q9BYT3); test: Eurofins Kinase Profiler panel; type: biochemical; conditions: read-out: % inhibition (1μM), DMSO control=100%, lower=stronger
T33 construct: purchased Eurofins KinaseProfiler (Eurofins Pharma Discovery Services UK, Dundee); JAK3 also ChemPartner
Text: as §1

C=CC(=O)N[C@@H]1CCCN(c2ncnc3[nH]ccc23)C1 [RB1]
activity at 1 µM (KDR): 96% | activity at 1 µM (Lyn): 118% | activity at 1 µM (MAPKAP-K2): 97% | IC50 (JAK2): > 5 µM | inhibition of JAK2 (JAK2; at concentrations up to 5 µM): did not inhibit | IC50 (TYK2; TYK2, ATP 16.0 μM (Km)): > 5 µM | inhibition of TYK2 (TYK2; at concentrations up to 5 µM): did not inhibit | IC50 (JAK1): > 5 µM | inhibition of JAK1 (JAK1; at concentrations up to 5 µM): did not inhibit | inhibition at 1 µM (ERBB2): 2.85% | inhibition at 1 µM (BMX): 4% | activity at 1 µM (GSK3β): 114% | activity at 1 µM (MKK4): 114% | activity at 1 µM (ALK4): 101% | IC50 ([1]; THP-1, read-out: IC50 (nM) JAK1): > 50000 nM | IC50 ([1]; THP-1, read-out: IC50 (nM) JAK3): 53.1 nM | inhibition of JAK3 phosphorylation compared with JAK1/JAK2-mediated STATs phosphorylation ([1]; IL-4 cell-based assay in THP-1 cells): over 1000 folds | Selectivity JAK1/JAK3 ([1]; THP-1, IL-4, pSTAT6): > 1000 | selectivity for JAK3 activity over JAK1 or JAK2 ([1]; battery of cytokine-stimulated cell-based assays): > 100 fold | activity at 1 µM (ACK1): 34% | activity at 1 µM (GCK): 80% | IC50 ([2]; Homo sapiens, Lymphocyte, hPBMC total lymphocytes, trigger IL-6, readout pSTAT3, JAK1): > 40 µM | Selectivity JAK1/JAK3 ([2]; hPBMC, IL-6 pSTAT3 over IL-2 pSTAT5): >400 fold | activity at 1 µM (TrkA): 46% | activity at 1 µM (SGK): 92% | activity at 1 µM (TAO1): 70% | activity at 1 µM (PKCθ): 80% | activity at 1 µM (ZIPK): 107% | activity at 1 µM (GSK3α): 82% | activity at 1 µM (CaMKI): 96% | activity at 1 µM (Rsk2): 76% | activity at 1 µM (CaMKK2): 101% | activity at 1 µM (CDK6): 100% | activity at 1 µM (SAPK4): 95% | activity at 1 µM (TrkC): 75% | activity at 1 µM (Pim-2): 98% | activity at 1 µM (ROCK-I): 88% | activity at 1 µM (TBK1): 96% | IC50 (PKG1α; estimated): > 0.8 µM | activity at 1 µM (PKG1α; read-out: % inhibition (1μM), 1 µM, DMSO control=100%, lower=stronger): 23% | activity at 1 µM (Wee1): 90% | activity at 1 µM (PAK4): 81% | activity at 1 µM (Plk3): 99% | activity at 1 µM (Src): 102% | activity at 1 µM (STK33): 93%
